Source: PubChem BioAssay AID248 (DTP/NCI, 2004)
Several values for one entry are separate records, joined by “and”; a condition that tells them apart may be missing. Equal values may be shown once. Inconclusive results and toxic doses are left out. No stated cut-off is given here; in the data, active means T/C of 150% or more; inactive means T/C below 125%.

Test system: L1210 leukemia ip in BDF1 mice, survival T/C
Assay: NCI In Vivo Anticancer Drug Screen. Data for tumor model L1210 Leukemia (intraperitoneal) in B6D2F1 (BDF1) mice
Details: endpoint: mean survival time, higher = longer survival
Procedure, shortened: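 Transplantable tumor model; survival measured in treated vs vehicle control mice. Value = treated/control.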

[1] = dose: 100.0 mg/kg/injection, schedule: Q01DX001 (ip), vehicle: saline
[2] = dose: 200.0 mg/kg/injection, schedule: Q01DX001 (ip), vehicle: saline
[3] = dose: 400.0 mg/kg/injection, schedule: Q01DX001 (ip), vehicle: saline
[4] = dose: 100.0 mg/kg/injection, schedule: Q01DX009 (ip), vehicle: saline
[5] = dose: 100.0 mg/kg/injection, schedule: Q04DX003 (ip), vehicle: saline
[6] = dose: 200.0 mg/kg/injection, schedule: Q01DX009 (ip), vehicle: saline
[7] = dose: 200.0 mg/kg/injection, schedule: Q04DX003 (ip), vehicle: saline
[8] = dose: 400.0 mg/kg/injection, schedule: Q01DX009 (ip), vehicle: saline
[9] = dose: 400.0 mg/kg/injection, schedule: Q04DX003 (ip), vehicle: saline
[10] = dose: 75.0 mg/kg/injection, schedule: Q01DX001 (ip), vehicle: carboxymethylcellulose (CMC)
[11] = dose: 50.0 mg/kg/injection, schedule: Q01DX009 (ip), vehicle: saline
[12] = dose: 100.0 mg/kg/injection, schedule: Q04DX003 (ip), vehicle: saline with Tween-80
[13] = dose: 200.0 mg/kg/injection, schedule: Q04DX003 (ip), vehicle: saline with Tween-80
[14] = dose: 100.0 mg/kg/injection, schedule: Q04DX002 (ip), vehicle: Klucel (hydroxypropylcellulose) (HPC)
[15] = dose: 200.0 mg/kg/injection, schedule: Q04DX002 (ip), vehicle: Klucel (hydroxypropylcellulose) (HPC)
[16] = dose: 400.0 mg/kg/injection, schedule: Q04DX002 (ip), vehicle: Klucel (hydroxypropylcellulose) (HPC)

Measured: T/C

CC1=COC(C)(C=O)CC1 (configuration not stated)
inactive: dose: 222.0 mg/kg/injection, schedule: Q01DX Z (ip), vehicle: methylcellulose (MC) 94 % of control | dose: 333.0 mg/kg/injection, schedule: Q01DX Z (ip), vehicle: methylcellulose (MC) 98 % of control | dose: 500.0 mg/kg/injection, schedule: Q01DX Z (ip), vehicle: methylcellulose (MC) 88 % of control

COc1cc(OC)c(NC(=O)CCl)cc1Cl
inactive: dose: 100.0 mg/kg/injection, schedule: Q01DX009 (ip), vehicle: Klucel (hydroxypropylcellulose) (HPC) 104 % of control | dose: 200.0 mg/kg/injection, schedule: Q01DX009 (ip), vehicle: Klucel (hydroxypropylcellulose) (HPC) 98 % of control

CCOC(=O)Cc1cc(=O)c2ccccc2[nH]1
inactive: dose: 100.0 mg/kg/injection, schedule: Q04DX003 (ip), vehicle: acetone 96 % of control | dose: 200.0 mg/kg/injection, schedule: Q04DX003 (ip), vehicle: acetone 97 % of control | dose: 400.0 mg/kg/injection, schedule: Q04DX003 (ip), vehicle: acetone 103 % of control

NP(O)(O)=S
inactive: dose: 9.38 mg/kg/injection, schedule: Q01DX001 (ip), vehicle: saline 104 % of control | dose: 18.75 mg/kg/injection, schedule: Q01DX001 (ip), vehicle: saline 98 % of control

CCCC[N+](C)(C)CC[N+](C)(C)CCCC
inactive: [1] 102 % of control | [2] 105 % of control | [3] 102 % of control

O=C(O)COCC(F)(F)C(F)(F)C(F)(F)COCC(=O)O
inactive: [4] 92 % of control | [5] 97 % of control | [6] 97 % of control | [7] 98 % of control | [8] 110 % of control | [9] 93 % of control

CCCCCCCCCCCCCCCc1cc(O)cc(O)c1
inactive: dose: 50.0 mg/kg/injection, schedule: Q01DX001 (ip), vehicle: other 88 % of control | dose: 200.0 mg/kg/injection, schedule: Q01DX001 (ip), vehicle: other 95 % of control | dose: 400.0 mg/kg/injection, schedule: Q01DX001 (ip), vehicle: other 93 % of control

O=[N+]([O-])c1ccc(CS(=O)Cc2ccccc2)cc1 (configuration not stated)
inactive: [10] 91 % of control | dose: 150.0 mg/kg/injection, schedule: Q01DX001 (ip), vehicle: carboxymethylcellulose (CMC) 100 % of control | dose: 300.0 mg/kg/injection, schedule: Q01DX001 (ip), vehicle: carboxymethylcellulose (CMC) 100 % of control

Cc1ccc(S(=O)(=O)NNC(=O)c2ccccc2NCCO)cc1
inactive: [1] 101 % of control | [2] 101 % of control | [3] 103 % of control

CN(C)/N=C/c1ccc[n+](C)c1
inactive: dose: 6.25 mg/kg/injection, schedule: Q01DX009 (ip), vehicle: saline 113 % of control | dose: 12.5 mg/kg/injection, schedule: Q01DX009 (ip), vehicle: saline 109 % of control | dose: 25.0 mg/kg/injection, schedule: Q01DX009 (ip), vehicle: saline 98 % of control and 110 % of control

C=CS(=O)(=O)CCCCCCC
inactive: dose: 75.0 mg/kg/injection, schedule: Q01DX001 (ip), vehicle: saline 96 % of control | dose: 150.0 mg/kg/injection, schedule: Q01DX001 (ip), vehicle: saline 94 % of control | dose: 300.0 mg/kg/injection, schedule: Q01DX001 (ip), vehicle: saline 97 % of control

CCN(CC)CCN1C(=O)CN=C(c2ccccn2)c2cc(Cl)ccc21
inactive: [11] 101 % of control | [4] 104 % of control | [12] 97 % of control | [6] 112 % of control | [13] 92 % of control

NC(=S)c1n[nH]nc1N
inactive: dose: 50.0 mg/kg/injection, schedule: Q01DX001 (ip), vehicle: saline 104 % of control | [1] 100 % of control | [2] 100 % of control

CCc1ccc(NC(C)=O)cc1
inactive: [12] 105 % of control | [13] 94 % of control | dose: 400.0 mg/kg/injection, schedule: Q04DX003 (ip), vehicle: saline with Tween-80 102 % of control

O=[N+]([O-])c1ccc(C[N+]2(CCC[N+]3(Cc4ccc([N+](=O)[O-])cc4)CCCC3)CCCC2)cc1
inactive: dose: 9.38 mg/kg/injection, schedule: Q01DX001 (ip), vehicle: other 107 % of control | dose: 18.75 mg/kg/injection, schedule: Q01DX001 (ip), vehicle: other 105 % of control

CCc1cc(CC)c(CC)c(CC)c1
inactive: [4] 100 % of control | [5] 107 % of control | [6] 87 % of control | [7] 105 % of control | [8] 108 % of control | [9] 91 % of control

O=C(NC(=S)c1ccc[nH]1)Nc1ccccc1
inactive: [11] 93 % of control | [4] 90 % of control | [6] 90 % of control

CCCCc1c(F)cccc1C(=O)O
inactive: dose: 12.5 mg/kg/injection, schedule: Q04DX003 (ip), vehicle: saline 101 % of control | dose: 25.0 mg/kg/injection, schedule: Q04DX003 (ip), vehicle: saline 108 % of control | dose: 50.0 mg/kg/injection, schedule: Q04DX003 (ip), vehicle: saline 87 % of control

CCc1c(Nc2ccc(Cl)c(Cl)c2)nc(N)[nH]c1=O
inactive: dose: 100.0 mg/kg/injection, schedule: Q01DX Z (ip), vehicle: methylcellulose (MC) 99 % of control | dose: 200.0 mg/kg/injection, schedule: Q01DX Z (ip), vehicle: methylcellulose (MC) 100 % of control

Cc1ccc(C(=O)O)cn1
inactive: [4] 97 % of control | [5] 97 % of control | [6] 98 % of control | [7] 113 % of control | [8] 97 % of control | [9] 105 % of control

C(=C(CC1CCC1)CC1CCC1)C1CCC1
inactive: dose: 100.0 mg/kg/injection, schedule: Q04DX002 (ip), vehicle: saline with Tween-80 96 % of control | dose: 200.0 mg/kg/injection, schedule: Q04DX002 (ip), vehicle: saline with Tween-80 90 % of control

S=C(Nc1ccc(Cl)cc1)Nc1ccc(Cc2ccc(NC(=S)Nc3ccc(Cl)cc3)cc2)cc1
inactive: [14] 113 % of control | [15] 106 % of control | [16] 92 % of control

CC1NNC(=O)c2ccccc21 (configuration not stated)
inactive: [1] 95 % of control | [2] 96 % of control | [3] 94 % of control

COC(=O)C1OC(n2cnc3c(Cl)ncnc32)C(OC(C)=O)C(OC(C)=O)C1OC(C)=O (configuration not stated)
inactive: dose: 50.0 mg/kg/injection, schedule: Q01DX001 (ip), vehicle: carboxymethylcellulose (CMC) 100 % of control | dose: 100.0 mg/kg/injection, schedule: Q01DX001 (ip), vehicle: carboxymethylcellulose (CMC) 108 % of control | dose: 200.0 mg/kg/injection, schedule: Q01DX001 (ip), vehicle: carboxymethylcellulose (CMC) 103 % of control | dose: 400.0 mg/kg/injection, schedule: Q01DX001 (ip), vehicle: carboxymethylcellulose (CMC) 97 % of control

Cc1[nH]nc(C(F)(F)F)c1N=NN1CCC(C(N)=O)CC1
inactive: [10] 95 % of control

COC(=O)C1CC(=O)N(Cc2ccccc2)C1 (configuration not stated)
inactive: [14] 89 % of control | [15] 100 % of control | [16] 92 % of control

CN(C)/C=N/NC(=O)C(O)(c1ccccc1)c1ccccc1
inactive: dose: 75.0 mg/kg/injection, schedule: Q01DX009 (ip), vehicle: Klucel (hydroxypropylcellulose) (HPC) 105 % of control | dose: 150.0 mg/kg/injection, schedule: Q01DX009 (ip), vehicle: Klucel (hydroxypropylcellulose) (HPC) 100 % of control | dose: 300.0 mg/kg/injection, schedule: Q01DX009 (ip), vehicle: Klucel (hydroxypropylcellulose) (HPC) 95 % of control

O=C1C=CC(=O)N1c1ccc(F)cc1
inactive: dose: 25.0 mg/kg/injection, schedule: Q04DX003 (ip), vehicle: saline with Tween-80 108 % of control
